In patent US20240207216A1, “COMPOSITIONS AND METHOD FOR TREATING GUT PERMEABILITY CAUSED BY HYDROGEN SULFIDE PRODUCING BACTERIA” (UNM RAINFOREST INNOVATIONS, priority 2022, published 2024):

Experiments:
Assay type in all cases: cell-based, murine
p-Akt/Akt = assay: DSV-induced Akt phosphorylation, Western blot in RAW cells; conditions: 1 h before DSV 4 h, DSV alone 4.88±1.31
Procedure: (§1) RAW 264.7 murine macrophage-like cells were grown in DMEM+10% FBS without any use of antibiotics or antimycotics. Cells were grown at 37° C. in a humidified incubator with 5% CO2. Prior to the day of infection, 8×10^5 cells were plated in a six-well plate and infected with DSV at multiplicity of infection 20 (MOI 20) for various times. For drug treatments, cells were incubated with LY294002 at 10 μM or 50 μM for one hour followed by DSV infection for 30 minutes or four hours. For TL2-C29 treatment, cells were incubated with the inhibitor at 200 μM for three hours followed by infection with DSV for four hours.
(§2) Cells were lysed in Lysis buffer containing protease and phosphatase inhibitors (Thermo Fisher Scientific, Inc., Waltham, MA) for 20 minutes at 4° C. Lysates were centrifuged at 12,000 rpm for five mins at 4° C. and supernatants were collected. Protein concentration in the supernatants was determined with Bradford reagent (Bio-Rad Laboratories, Inc., Hercules, CA). 50 μg of protein samples were run on SDS-PAGE (4-20% tris-glycine) and transferred to nitrocellulose membranes. Membranes were blocked in 5% milk in PBS-T (0.1% Tween 20) for 30 minutes followed by overnight incubation in primary antibodies in cold room. All antibodies except iNOS were purchased from Cell Signaling Technology (Danvers, MA): Actin (4970), p-AktS473(4060), p-Akt T308(13038), Akt (9272), p-P70S6K (9205), P70S6K (2708, TNF-α (19948). iNOS antibody was purchased from Abcam (Cambridge United Kingdom). Antibodies were diluted as recommended by the manufacturer. The following day, blots were washed with PBS-T and incubated with secondary antibodies (Cell Signaling Technology, Danvers, MA) at room temperature for one hour (dilution of 1:2000) and developed using enhanced chemiluminescence HRP signal (Thermo Fisher Scientific, Inc., Waltham, MA).
(§3) All graphs were generated using PRISM 9.4.1 GraphPad Software Inc., San Diego, CA). Data is plotted as Mean±SEM relative to control. Each experiment was conducted at least three independent times. […]

p-p70S6K = assay: DSV-induced p-P70S6K, Western blot in RAW cells; conditions: 1 h before DSV 4 h, DSV alone 1.96±0.20
Procedure: as §1
(§4) Cells were lysed in Lysis buffer containing protease and phosphatase inhibitors (Thermo Fisher Scientific, Inc., Waltham, MA) for 20 minutes at 4° C. Lysates were centrifuged at 12,000 rpm for five mins at 4° C. and supernatants were collected. Protein concentration in the supernatants was determined with Bradford reagent (Bio-Rad Laboratories, Inc., Hercules, CA). 50 μg of protein samples were run on SDS-PAGE (4-20% tris-glycine) and transferred to nitrocellulose membranes. Membranes were blocked in 5% milk in PBS-T (0.1% Tween 20) for 30 minutes followed by overnight incubation in primary antibodies in cold room. […]

TNF-α = assay: DSV-induced cellular TNF-α expression, Western blot in RAW cells; conditions: 1 h before DSV 4 h, DSV alone 37.01±4.28
Procedure: as §1, §2, §3

secreted TNF-α = assay: DSV-induced secreted TNF-α, Western blot of RAW cell culture supernatant; conditions: 1 h before DSV 4 h, DSV alone 18.73±6.21
Procedure: FIG. 12. LY294002 inhibits DSV-induced activation of PI3K/Akt/TNF pathway. (A) RAW cells were treated with LY at either 10 μM or 50 μM for one hour before infection with DSV for four hours. Cells were lysed and protein lysate was prepared. Fifty μg of protein lysate was separated on SDS-PAGE and analyzed for p-Akt, Akt, TNF, iNOS, p-p70S6K, and total p70S6K by Western blotting. Actin was used as a loading control. (B) Quantification of p-Akt-Akt Western blot. (C) Quantification of p-P70/P70 Western blot. (D) Quantification of TNF-α/actin Western blot. (E) Post-infection, RAW cell culture supernatant was collected and proteins were precipitated using ethanol precipitation. Proteins were resuspended in PBS and 50 μg of proteins were loaded on SDS-PAGE and secreted TNF-α was detected using TNF-α antibody. Actin was used as a loading control.
as §1, §4

iNOS = assay: DSV-induced iNOS expression, Western blot in RAW cells; conditions: 1 h before DSV 4 h, DSV alone 23.54±5.39
Procedure: as §1, §2, §3

p-p65 NF-κB = assay: DSV-induced phospho-p65 NF-κB, Western blot in RAW cells; conditions: 50 μM pre-treatment, DSV 30 minutes; DSV alone 3.54±0.59
Procedure: FIG. 13. LY294002 inhibits DSV-induced activation of PI3K/Akt/TNF pathway. (A) Quantification of secreted TNF-α. (B) Cells were treated with LY at either 10 μM or 50 μM for one hour before infection with DSV for four hours. Protein lysate was analyzed for iNOS expression. (C) Cells were pretreated with or without LY 50 μM followed by infection with DSV for 30 minutes and protein samples were analyzed for p-p65 NF-κB and total NF-κB. (D) Blots were quantified by analyzing the ratio of p-NF-κB/NF-κB. Values were normalized and compared to control. Data represents Mean±SEM from at least three independent experiments. Values were normalized to control. One-way ANOVA was used to determine the statistical significance. Values were compared to DSV, with a post-hoc Dunnett's test. *p<0.05, **p<0.01, ***p<0.001.
RAW 264.7 murine macrophage-like cells were grown in DMEM+10% FBS without any use of antibiotics or antimycotics. Cells were grown at 37° C. in a humidified incubator with 5% CO2. […]
Cells were lysed in Lysis buffer containing protease and phosphatase inhibitors (Thermo Fisher Scientific, Inc., Waltham, MA) for 20 minutes at 4° C. […] Protein concentration in the supernatants was determined with Bradford reagent (Bio-Rad Laboratories, Inc., Hercules, CA). […]

O=c1cc(N2CCOCC2)oc2c(-c3ccccc3)cccc12 [LY294002]
p-Akt/Akt, normalized to control (p-Akt/Akt; 10 μM): 0.52±0.11 | p-Akt/Akt, normalized to control (p-Akt/Akt; 50 μM): 0.40±0.09 | p-P70/P70, normalized to control (p-p70S6K; 10 μM): 0.081±0.026 | p-P70/P70, normalized to control (p-p70S6K; 50 μM): 0.088±0.029 | cellular TNF-α/actin, normalized to control (TNF-α; 10 μM): 13.42±2.13 | cellular TNF-α/actin, normalized to control (TNF-α; 50 μM): 6.044±2.139 | secreted TNF-α, normalized to control (secreted TNF-α; 10 μM): 1.45±0.24 | secreted TNF-α, normalized to control (secreted TNF-α; 50 μM): 1.34±0.57 | iNOS expression, normalized to control (iNOS; 10 μM): 5.45±0.17 | iNOS expression, normalized to control (iNOS; 50 μM): 2.28±0.58 | p-NF-κB/NF-κB (p-p65), normalized to control (p-p65 NF-κB): 1.91±0.54
